Legend:
[1] = topical versus oral; cited from earlier work
[2] = test system: HSV-1; assay: In vitro assay for anti-HSV-1 mRNA activity (QuantiGene Plex 2.0 bDNA) in infected primary Adult Human Dermal Microvascular Endothelial Cells; assay type: cell-based, HSV type 1; settings: variable slope fit; for LogIC50 (best-fit value): concentrations in μM, overnight incubation, triplicate
Protocol: (§1) In vitro assays for anti-HSV-1 and anti-HSV-2 mRNA activity are described in Example 1. Confluent Vero cell monolayers were infected with HSV type 1 or HSV type 2 at a multiplicity of infection of 10 and the resultant virus was used to infect primary Adult Human Dermal Microvascular Endothelial Cells for 1 hour; the supernatant was replaced with fresh culture media and then incubated overnight in the presence of various concentrations of acyclovir, 2-deoxy-D-glucose or an equimolar combination of the two compounds. After overnight incubation, the cells were harvested, lysed, and subjected to QuantiGene Plex 2.0 assay (Panomics, Inc., Fremont, Calif.) for quantitative assay of HSV-1 and HSV-2 mRNA. The QuantiGene Plex 2.0 assay combines branched DNA (bDNA) signal amplification and multi-analyte profiling beads (xMAP®) technologies to enable the detection and quantitation of multiple mRNA targets simultaneously. Briefly, confluent Vero cell monolayers were infected with HSV type 1 or HSV type 2 at a multiplicity of infection of 10 and the resultant virus was used to infect primary Adult Human Dermal Microvascular Endothelial Cells for 1 hour and then the supernatant was replaced with fresh culture media and then incubated overnight in the presence of various concentrations of acyclovir, 2-deoxy-D-glucose or an equimolar combination of the two compounds. […], this assay is considered to be a more sensitive and specific assay (bDNA) for the final readout when compared to an ELISA. The ELISA method while easier, can lack specificity to determine the difference between HSV1 and HSV2. The bDNA assay is a hybridization-based method of target-specific RNA quantitation that amplifies signal rather than target RNA, using labeled DNA probes. The QuantiGene Plex 2.0 system utilizes fluorescent microspheres (Capture Beads) as a support to capture specific RNA molecules. The ability to quantify multiple target-specific RNA molecules in a single sample lies in the design of the Probe Sets. […] The resulting fluorescence signal associated with individual Capture Beads is read on a Luminex flow cytometer. Signal is reported as median fluorescence intensity (MFI) and is proportional to the number of target RNA molecules present in the sample. […]

[3] = test system: HSV-2; assay: In vitro assay for anti-HSV-2 mRNA activity (QuantiGene Plex 2.0 bDNA) in infected primary Adult Human Dermal Microvascular Endothelial Cells; assay type: cell-based, HSV type 2; settings: variable slope fit; for LogIC50 (best-fit value): concentrations in μM, overnight incubation, triplicate
Protocol: as §1

SMILES	drug concentration in the skin after local application, lower than after given orally [1]	HillSlope (best-fit value) [2]	LogIC50 (best-fit value) [2]	HillSlope (best-fit value) [3]	LogIC50 (best-fit value) [3]
Nc1nc2c(ncn2COCCO)c(=O)[nH]1 [Acyclovir, 9-(2-hydroxyethoxymethyl)guanine]	2-3 times	−1.108	0.2509	−1.113	0.2805
O=CC[C@@H](O)[C@H](O)[C@H](O)CO [2 Deoxy D glucose, 2-deoxy-D-glucose]	–	−2.395	1.32	−3.957	0.9029
